Assay results as given in patent US5446065A, “Sulfonamides of phenylalkylamines or phenoxyalkylamines processes for their preparation and medicaments containing these compounds” (Boehringer Mannheim GmbH, priority 1990, dated 1995).

What was measured:
[1] = test system: U 46619-caused lung embolism; experiment: Prevention of the U 46619-caused lung embolism (survival); type: in vivo, male NMRI mice; conditions: po, mouse, stomach probe, U 46619 injected 4 h later (800-1000 μg/kg, tail vein), read-out: survival rate of mouse 1 mg/kg after 4 h
Method: 2. Prevention of the U 46619-caused lung embolism
Male NMRI mice of about 25 g body weight are used. The test substance is suspended in 1% methyl cellulose solution and administered to the experimental animals by means of a stomach probe. The provocation test consists in that a dose lethal for the control animals (800-1000 μg/kg) of the thromboxane mimetic (U 46619 of the firm Upjohn) is rapidly injected into the tail vein. The period of the specific antagonistic action is tested in that the animals are pre-treated with 1 mg/kg of the various test substances and the injection of U 46619 takes place after 4 h. The survival rate indicates what percent of the animals used survive the injection of the thromboxane mimetic.

[2] = test system: U46619-induced bronchospasm of the guinea pig; experiment: Inhibition of the U 46619-induced bronchospasm of the anaesthetised guinea pig; type: in vivo; conditions: Cavia porcellus, iv, 10 min, test substance i.v., 10 μg/kg U 46619 i.v., AUC over 10 min, read-out: ID50 of U46619-induced bronchospasm of the guinea pig
Method: 3. Inhibition of the U 46619-induced bronchospasm of the anaesthetised guinea pig
Guinea pigs are anaesthetised with narcoren and provided with a jugular vein catheter and a tracheal canula. The animals are mechanically respirated with atmospheric air with 1 ml/100 g body weight. The tracheal canula is connected via a three-way stopcock with a Stathem pressure element which takes up the pressure resulting by the contraction of the smooth musculature in the trachea and passes on to a recorder via a measuring bridge. After achievement of a constant basal tonus, the animals receive 10 μg/kg U 46619 i.v. administered via the jugular vein catheter. The dose induces a rapidly increasing bronchospasm which, after about 10 minutes, again subsides and is very readily reproducable. After 15 minutes follows a second administration of 10 μg/kg U 46619, in the course of which, after 5 minutes, the test substance is given i.v. in various doses. After a further 15 minutes, the same dose of U 46619 is again injected. The areas under the curve over 10 min of the administration 1 and 3 are determined planimetrically on a Kontron-Videoplan unit and the bronchospasm after administration 3 calculated in percentage of the bronchospasm after administration 1. The ID50 of the test substance can be determined from the quotients.

[3] = test system: pre-contracted isolated rat aortas; experiment: TX-antagonistic action: inhibition of contraction of the isolated rat aorta ring pre-contracted with U 46619; type: cell-based; conditions: aorta rings precontracted with 0.3 μmol/l U 46619, cumulative addition, 37° C.
Method: 1. TX-antagonistic action on the isolated rat sorts ring pre-contracted with U 46619
The isolated rat sorts freed from surrounding connective tissue is cut up into equally wide rings and superinfused in a 10 ml organ bath with Krebs-Hanseleit buffer at 37° C. After about 45 min., equilibration time, the sorts rings are precontracted with 0.3 μmol/l U 46619, a stable analogue of the prostaglandin endoperoxide PGH2 (Upjohn & Co., Kalamazoo, USA). U 46619 was characterised as selective thromboxane mimetic (Coleman et al., Brit. J. Pharmacol. 68, 127P, 1980). As soon as a stable plateau is reached (after about 15 min.), the test substance is added cumulatively directly into the organ bath to the aorta ring, beginning with 10 nmol/l, until either an end concentration of 100 μmol/l is reached or the contraction is completely antagonised. There is calculated the particular percentage inhibition of the contraction by the test substance. From the concentration-action curves is determined the IC50, i.e. the half maximum inhibiting concentration.

SMILES: O=C(COc1cccc(CCNS(=O)(=O)c2ccc(Cl)cc2)c1)N1CCCCC1 [Ex. 1 d, 3-[2-(4-chlorophenylsulphonylamino)-ethyl]-phenoxyacetylpiperidide]
- responders at 1 mg/kg [1]: 100%
- ED50 [2]: 0.5 mg/kg
- IC50 [3]: 3400 nM

SMILES: O=C(COc1cccc(CCNS(=O)(=O)c2ccc(Cl)cc2)c1)NCCO [Ex. 1 f, 3-[2-(4-chlorophenylsulphonylamino)-ethyl]-phenoxyacetic acid (2-hydroxyethylamide)]
- responders at 1 mg/kg [1]: 100%
- ED50 [2]: 0.02 mg/kg
- IC50 [3]: 1600 nM

SMILES: O=C(COc1cccc(CCNS(=O)(=O)c2ccc(Cl)cc2)c1)N(CCO)CCO [Ex. 1 g, 3-[2-(4-chlorophenylsulphonylamino)-ethyl]-phenoxyacetic acid 2-[bis-(2-hydroxyethyl)-amide]]
- responders at 1 mg/kg [1]: 100%
- ED50 [2]: 0.04 mg/kg
- IC50 [3]: 1600 nM

SMILES: O=C(COc1ccc(CCNS(=O)(=O)c2ccc(Cl)cc2)cc1)Nc1cccnc1 [Ex. 1 r, 4-[2-(4-chlorophenylsulphonylamino)-ethyl]-phenoxyacetic acid (3-pyridyl)-amide]
- responders at 1 mg/kg [1]: 90%
- ED50 [2]: 0.02 mg/kg
- IC50 [3]: 1000 nM

SMILES: CCNC(=O)COc1cccc(CCNS(=O)(=O)c2ccc(Cl)cc2)c1 [Ex. 2 a, 3-[2-(4-chlorophenylsulphonylamino)-ethyl]-phenoxyacetic acid ethylamide]
- responders at 1 mg/kg [1]: 100%
- ED50 [2]: 0.01 mg/kg
- IC50 [3]: 1800 nM

SMILES: NCCCc1ccc(CCNS(=O)(=O)c2ccc(Cl)cc2)cc1 [Ex. 4 m, 1-[4-[2-(4-chlorophenylsulphonylamino)-ethyl]-phenyl]-3-aminopropane]
- responders at 1 mg/kg [1]: 100%
- ED50 [2]: 0.05 mg/kg
- IC50 [3]: 3000 nM

SMILES: NCCCCc1ccc(CCNS(=O)(=O)c2ccc(Cl)cc2)cc1 [Ex. 4 s, 1-[4-[2-(4-chlorophenylsulphonylamino)-ethyl]-phenyl]-4-aminobutane]
- responders at 1 mg/kg [1]: 90%
- ED50 [2]: 0.1 mg/kg
- IC50 [3]: 2600 nM

SMILES: NCCOc1cccc(CCNS(=O)(=O)c2ccc(Cl)cc2)c1 [Ex. 4, 1-[3-[2-(4-Chlorophenylsulphonylamino)-ethyl]-phenoxy]-2-aminoethane]
- responders at 1 mg/kg [1]: 100%
- ED50 [2]: 0.01 mg/kg
- IC50 [3]: 340 nM

SMILES: NCCc1ccc(CCNS(=O)(=O)c2ccc(Cl)cc2)cc1 [Ex. 5, 1-[4-[2-(4-Chlorophenylsulphonylamino)-ethyl]-phenyl]-2-aminoethane]
- responders at 1 mg/kg [1]: 100%
- ED50 [2]: 0.05 mg/kg
- IC50 [3]: 100 nM
